Measurements reported in publication PMC6895199, “A new antiviral scaffold for human norovirus identified with computer-aided approaches on the viral polymerase” (Scientific Reports, 2019).

Tests used:
MNV = MNV CPE reduction assay (MTS) in RAW 264.7 cells; type: cell-based, mouse norovirus (MNV-1.CW1); conditions: Norovirus, RAW264.7, in Mus musculus, Table 2, RAW 264.7, range 0.6–100 µM, at least three independent experiments
Procedure, shortened: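 MNV-1.CW1-infected RAW 264.7 cells treated at eight concentrations (0.6–100 µM), 2′-C-methylcytidine as positive control. Viability read by MTS/PMS at OD 498 nm after 2 h; %CPE reduction normalised to uninfected and infected untreated cells, EC50 = concentration protecting 50% of cells from virus-induced CPE.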

[1] = Cytotoxicity by the MTS method on uninfected cells; type: cell-based; conditions: mouse, uninfected RAW 264.7 cells, Table 2, at least three independent experiments
Procedure: Cytotoxicity: The cytotoxicity of the Compounds was evaluated by the MTS method, by exposing uninfected cells to the same concentrations of compounds for 3 days. The %cell viability was calculated as (ODtreated/ODCC) × 100, where ODCC is the OD of uninfected untreated cells and ODtreated are uninfected cells treated with compound. The CC50 was defined as the compound concentration that reduces the number of viable cells by 50%[34].

| Compound | EC50 (MNV) | CC50 at 3 days [1] |
| --- | --- | --- |
| O=C(NC(=S)Nc1ccc(N2CCN(C(=O)c3cccs3)CC2)cc1)c1sc2ccccc2c1Cl [Compound 48, 3-Chloro-N-((4-(4-(thiophene-2-carbonyl)piperazin-1-yl)phenyl)carbamothioyl)benzo[b]thiophene-2-carboxamide, reference compound] | 58.2 ± 20.7 µM | > 100 µM |
| Cc1ccc(C(=O)NC(=S)Nc2ccc(N3CCN(C(=O)c4cccs4)CC3)cc2)cc1 [Compound 52, 4-Methyl-N-((4-(4-(thiophene-2-carbonyl)piperazin-1-yl)phenyl)carbamothioyl)benzamide] | 45.1 ± 10.8 µM | > 100 µM |
| O=C(NC(=S)Nc1ccc(N2CCN(C(=O)c3nccs3)CC2)cc1)c1sc2ccccc2c1Cl [Compound 56, 3-Chloro-N-((4-(4-(thiazole-2-carbonyl)piperazin-1-yl)phenyl)carbamothioyl)benzo[b]thiophene-2-carboxamide] | 66.1 ± 12.3 µM | > 100 µM |
